Test results published in patent publication US12220446B2, “Use of upstream open reading frame 45aa-uORF nucleotide sequence of PTEN gene and polypeptide coded by 45aa-uORF” (THE FIRST AFFILIATED HOSPITAL, SUN YAT-SEN UNIVERSITY, priority 2017, dated 2025).

Columns and labels:
U251 cells [1] = assay: Cell viability with CCK-8 after adding chemically synthesized polypeptide; type: cell-based; settings: 25 μM, washed out after 4 hours, culture for 72 hours
[2] = tested on: U251 neuroglioma transplanted tumors; assay: U251 tumor subcutaneously implanted in nude mice, intratumoral peptide injection; type: in vivo; settings: 25 μg/tumor every other day, 5-6 medications, vs control polypeptide of shuffled sequence
Method: In one aspect, the anti-tumor ability of the 45aa-uORF coded micropeptide is verified in vivo by animal experiments in the present invention. Mice are subcutaneously inoculated with 2 million U251 neuroglioma cells. Thirty days later, transplanted tumors are treated with the chemically synthesized 45aa-uORF coded micropeptide (25 ug/tumor) every other day.
U251 cells were inoculated to the left and right sides of nude mice by 2 million at each point. Thirty days later, the formation of tumors was observed, and the tumors were averagely divided into a control group and an experimental group by size (five nude mice and ten tumors in each group). The control group was injected with a control polypeptide every other day, and the experimental group was injected with the 45aa-uORF polypeptide every other day. Each tumor was injected with 25 μg synthetic peptide. The long diameters and short diameters of the tumors were measured before the medication, and after 5-6 times medications, the nude mice were sacrificed, and tumors were taken out, photographed and weighed. Tumor volume=½*long diameter*the square of short diameter

U251 cells [3] = assay: Ability of FITC-labelled micropeptide to enter cells (fluorescence microscopy); type: cell-based; settings: FITC-attached micropeptide, 20 μM, 4 hours
Method: U251 cells were inoculated onto a glass slide at the density of 50%, and different concentrations of PTEN-45aa micropeptide t attached with FITC fluorescent groups (the micropeptide was dissolved in DMSO with a concentration being 20 μg/μL) were added to treat cells for 4 hours, then fixed with Faure Marin, and observed and photographed under a fluorescence microscope.

U251 neuroglioma cells = assay: Lentiviral overexpression of 45aa-uORF in U251 cells: cell cycle, CCK-8 growth curve, clone formation assay, soft agar; type: cell-based; settings: stably overexpressed via lentivirus vector vs U251-GFP control cells
Method: A vector for overexpressed 45aa-uORF-GFP (the skeleton of the vector is pCDH-CMV-MCS-EF1-Puro) was constructed and then used to transfect into HEK-293T cells together with lentivirus skeleton vectors PSPAX2, PMD2G in a ratio of 1:3:1 to package the lentivirus. The medium supernatants with the lentivirus were collected at 48 hours and 72 hours, respectively, and then used to infect U251 cells (added with 8 μg/ml polybrene to improve the infection efficiency). Puromycin ([…]) was employed for screening and removed three days later, and then the cells were proliferated normally. […]
1.5 Million U251 glioma cells of lentivirus overexpressed 45aa-uORF were inoculated into a T25 culture flask. […] Then, after being centrifuged and washed with PBS once, the precipitate was resuspended in 25 μg/mL Propidium Iodide (PI, sigma)/PBS solution, stained for 30 minutes away from light, and then detected on cell-cycle distribution thereof.
U251-GFP control cells or U251-45aa-uORF-GFP cells were inoculated into a 96-well plate in a quantity of 2000 cells per well. […] After cell adherence to the wall, the CCK-8 (Dojindo, CK04) reagent was added by 10 μL per well every 24 hours for culture at 37° C. for 1-4 hours, and then the absorbance (OD) of […] was detected. The absorbance value was directly proportional to the number of cells. […]

[4] = listed as 45aa-uORF coded polypeptide

MRDGGGRGPEPLSAPVSSRGGSALGEPAGLRRRQRRRFSPPLRLF (listed as Homo sapiens) [PTEN-45aa, oligopeptide of 45 amino acids coded by the 45aa-uORF in the 5′UTR of human PTEN gene]
growth and proliferation of glioma cells (cell viability, CCK-8) (U251 cells [1]; listed as 45aa-uORF coded micropeptide): significantly suppress the growth and proliferation | growth and proliferation of glioma cells (cell viability, CCK-8) (U251 cells [1]; [4]): significantly suppress the growth of glioma cells | growth and formation of U251 transplanted tumors [2]: significantly suppress the growth and formation of the tumors | ability of the micropeptide to enter cells (U251 cells [3]; [4]): can enter U251 cells | ability of the micropeptide to enter cells (U251 cells [3]; listed as PTEN-45aa micropeptide): could enter the U251 cells smoothly | growth and proliferation of U251 glioma cells (U251 neuroglioma cells): significantly suppress the growth and proliferation | clone formation of U251 neuroglioma cells (CFA, soft agar) (U251 neuroglioma cells; two weeks): significantly suppress the growth, proliferation and clone formation
